Data as given in patent publication US12037411B2, “Antibodies, and bispecific antigen-binding molecules that bind HER2 and/or APLP2, conjugates, and uses thereof” (Regeneron Pharmaceuticals, Inc., priority 2018, dated 2024).

Legend:
APLP2 in T47D cells = assay: APLP2 turnover after cycloheximide treatment (western blot); format: cell-based, human; details: for Normalized APLP2 expression: 50 ug/ml
Procedure: (§1) Additionally, the degradation rates of APLP2 and HER2 was tested on T47D cells. For the assay, T47D cells were plate at 10^6 cells/well in 6 well plates (Corning #3516). The cells were allowed to grow overnight at 37° C. in 5% CO2 in media consisting of RPMI 1640+10% FBS+1 mM sodium pyruvate+10 mM HEPES+10 ug/mL Insulin+5 mL Penicillin/Streptomycin/Glutamine. The following day, cells were treated with 50 ug/ml cycloheximide (Sigma #C4859-1ML) for 0, 0.5, 1.5, 2.5, 3.5, 4.5 and 5.5 hours. After the incubation, cells were washed once with 1 ml of DPBS/CM, and subsequently placed on ice and then the DPBS/CM was replaced with 800 uL of lysis buffer [1×RIPA (Boston Bioproducts, Cat #BP-116)+Protease inhibitor (Thermo Fisher, 1861280), cells were scraped and lysates were transferred to 1.5 ml Eppendorf tubes. Afterwards, the samples were sonicated with 25 pulses, 1 sec each at 50% power. Afterwards, the samples were frozen at −20° C. The samples were later thawed and 52 ul of each sample was mixed with 20 ul 4× Laemmli (Invitrogen, NP0007)+8 uL 10× Reducing agent (Invitrogen, Cat #NP0009)]. Samples were boiled at 95° C. for 10 minutes, centrifuged at 14000 RPM for 10 minutes at room temperature. 40 uL of each sample was loaded into three Wedged 4-20% TRIS-Glycine gels (Invitrogen, XPO4125BOX) and ran at 150V. The gels were then transferred into two PVDF membranes (ThermoFisher, IB24001) with iBlot2 dry blotting system (ThermoFisher, 1321001). The membranes were then blocked with 5% milk (BioRad, Cat #170-6404) in TBS for 3 hours at room temperature. Primary antibodies, rabbit-anti-HER2 antibody (Dako, Cat #A048529) or rabbit-anti-APLP2 antibody (abcam, Cat #ab140624) in 2.5% Milk+0.1% Tween (Sigma, Cat #P8074) in TRIS buffered saline (TBS; ThermoFisher, Cat #28376), were then added to the membranes and incubated at 4° C. overnight. The membranes were then washed 3 times with TBS for 5 minutes at room temperature. After, anti-rabbit-HRP antibodies (Promega, #W4011) and anti-actin-HRP antibody (Santa Cruz, Cat #sc-47779) in 2.5% Milk+0.1% Tween in TBS were added to the membranes and incubated at room temperature for 1 hour. The membranes were then washed 2 times with TBS+0.1% Tween at room temperature for 5 minutes, and then washed 2 more times with TBS room temperature for 5 minutes. The blot was then developed with ECL Detection Reagent (GE healthcare, Cat #RPN2106) and imaged with Azure C300 imager. Band quantification (mean fluorescence intensity minus background) was performed using ImageJ. Table 11 summarizes HER2, APLP, or T47D cells after cycloheximide (CHX) treatment normalized to cells having no CHX contact.

HER2 in T47D cells = assay: HER2 turnover after cycloheximide treatment (western blot); format: cell-based, human; details: for Normalized HER2 expression: 50 ug/ml
Procedure: as §1

**Q.** For C[C@@H]1C[C@@H]([C@H](O)CC2CC(=O)NC(=O)C2)C(=O)[C@@H](C)C1 [CHX, cycloheximide], which “Normalized APLP2 expression” value (APLP2 in T47D cells; CHX treatment 0.5 hours) is on record?
**A.** 41%

**Q.** And the “Normalized APLP2 expression” value (APLP2 in T47D cells; CHX treatment 1.5 hours)?
**A.** 22%

**Q.** And the “Normalized APLP2 expression” value (APLP2 in T47D cells; CHX treatment 2.5 hours)?
**A.** 9%

**Q.** And the “Normalized APLP2 expression” value (APLP2 in T47D cells; CHX treatment 3.5 hours)?
**A.** 7%

**Q.** And the “Normalized APLP2 expression” value (APLP2 in T47D cells; CHX treatment 4.5 hours)?
**A.** 8%

**Q.** And the “Normalized APLP2 expression” value (APLP2 in T47D cells; CHX treatment 5.5 hours)?
**A.** 6%

**Q.** What about the APLP2 degradation (APLP2 in T47D cells; after 5.5 hours) of the same compound?
**A.** 94%

**Q.** What about the APLP2 degraded (APLP2 in T47D cells; in 1.5 hours) of the same compound?
**A.** Eighty-eight

**Q.** And the “Normalized HER2 expression” value (HER2 in T47D cells; CHX treatment 0.5 hours)?
**A.** 57%

**Q.** What about the “Normalized HER2 expression” value (HER2 in T47D cells; CHX treatment 1.5 hours) of the same compound?
**A.** 78%

**Q.** And the “Normalized HER2 expression” value (HER2 in T47D cells; CHX treatment 2.5 hours)?
**A.** 68%

**Q.** What about the “Normalized HER2 expression” value (HER2 in T47D cells; CHX treatment 3.5 hours) of the same compound?
**A.** 64%

**Q.** And the “Normalized HER2 expression” value (HER2 in T47D cells; CHX treatment 4.5 hours)?
**A.** 88%

**Q.** What about the “Normalized HER2 expression” value (HER2 in T47D cells; CHX treatment 5.5 hours) of the same compound?
**A.** 78%

**Q.** And the HER2 degradation (HER2 in T47D cells; after 5.5 hours)?
**A.** 22%
